Reference: US11896586B2, “Apixaban formulations” (Bristol-Myers Squibb Company, priority 2018, dated 2024)

Test: Dissolution of apixaban in SLD coating solvent, monitored in situ by UV probe
Assay type: physicochemical
Description: Three aliquots of ethanol were dispensed. Apixaban was added to the first portion (1464 g) with stirring. This suspension was then added to a 20 L mixing vessel. To ensure complete API transfer, the remaining aliquots of ethanol (two aliquots of approximately 2600 g each) were used to rinse the suspension container surfaces and were subsequently added to the 20 L mixing vessel in step-wise fashion. The apixaban/ethanol solution was stirred using an overhead mixer at approximately 500 rpm for 50 minutes. Dissolution of apixaban in ethanol was monitored in-situ using a UV probe (absorbance range 278-282 nm, 2 mm tip opening, measure rate 1 s^−1).

Time to full dissolution of apixaban (ethanol, measured at 0.15 mgA/mL, UV 278-282 nm): less than 10 minutes
Time to full dissolution of apixaban (ethanol/water/HPMC solution, apparent concentration 0.21 mgA/g, UV 280 nm): less than 10 minutes
SMILES: COc1ccc(-n2nc(C(N)=O)c3c2C(=O)N(c2ccc(N4CCCCC4=O)cc2)CC3)cc1 [apixaban, 1-(4-methoxyphenyl)-7-oxo-6-[4-(2-oxo-1-piperidinyl)phenyl]-4,5,6,7-tetrahydro-1H-pyrazolo[3,4-c]pyridine-3-carboxamide]
